Common to all, as to format: in vivo
The test system of assay [1] is Tetranychus cinnabarinus Nymphs. The assay is described as follows: Activity assay of Tetranychus cinnabarinus nymphs (spray on broad bean leaves). Summed up:
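Compound in DMF (≤10%) diluted in 1‰ Tween 80 water was sprayed onto broad bean leaves carrying nymphs hatched from eggs laid by female adults over 24 h. Kept at 26±2° C., 70%–80% humidity, 16 h light; mortality (no response to touch) assessed after 48 h, three replicates with blank control.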

For assay [2], the system named is adult Tetranychus cinnabarinus. Nature of the assay: Activity assay of adult Tetranychus cinnabarinus (whole-plant spray on bean seedlings). As to conditions: 48 h, read-out: adult mite-killing activity. Summed up: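 Bean seedlings at two-true-leaf stage, infested with adult mites and base count taken, sprayed whole-plant with compound in DMF (≤10%) diluted in 1‰ Tween 80. Three replicates per treatment kept in standard observation room. Surviving mites counted at 48 h to give death rate.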

The test system of assay [3] is Eggs of Tetranychus Cinnabarinus. Nature of the assay: Activity assay of eggs of Tetranychus cinnabarinus (spray method, ovicidal). As to conditions: Tetranychus cinnabarinus, read-out: ovicidal activity. An outline of the steps:
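Female mites laid eggs on broad bean leaves for 24 h, adults removed, eggs sprayed with compound in DMF (≤10%)/1‰ Tween 80. Held at 26±2° C, 70–80% humidity, 16 h light; unhatched eggs counted dead once blank control hatched. Three replicates.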

The mark [4] stands for this setting: 48 h, concentration 2.5 mg/L, read-out: nymph-killing activity.
The mark [5] stands for this setting: concentration 5 mg/L, spray, non-incubated eggs counted as dead.
The mark [6] stands for this setting: concentration 2.5 mg/L, 48 h, read-out: nymph-killing activity.
Where [7] appears, read: 48 h, read-out: nymph-killing activity.

Like-named read-outs stand apart in the source and are kept apart here.

For the molecule `C=CC(=O)OC(C)O/C(=C(/C#N)c1ccc(C(C)(C)C)cc1)c1c(C)c(C)nn1CC` (stereo not drawn) [Compound 417], the pest or weed control at 2.5 µg/mL in assay [1] (setting [4]) was at least 95%; in assay [2] (concentration 2.5 mg/L), at least 90%. Also, in assay [3] (setting [5]), the pest or weed control at 5 µg/mL is at least 90%.

Turning to `Cc1nn(C)c(/C(OCOC(=O)C(C)(C)C)=C(\C#N)c2ccc(C(C)(C)C)cc2)c1C` [Compound 155], the values for the pest or weed control at 2.5 µg/mL in assay [1] (setting [4]) and in assay [2] (concentration 2.5 mg/L) were at least 95% and at least 90%, respectively. Further, the pest or weed control at 5 µg/mL in assay [3] (setting [5]) was at least 90%.

For the molecule `CCn1nc(C)cc1/C(OC(C)OC(=O)OCCSC)=C(\C#N)c1ccc(C(C)(C)C)cc1` (stereo not drawn) [Compound 599], the pest or weed control at 2.5 µg/mL in assay [1] (setting [4]) is at least 95%; in assay [2] (concentration 2.5 mg/L), at least 90%. In addition, the pest or weed control at 5 µg/mL in assay [3] (setting [5]) was at least 90%.

For `CCn1nc(C)c(Cl)c1/C(OC(C)OC(=O)C1CC1)=C(\C#N)c1ccc(C(C)(C)C)cc1` (stereo not drawn) [Compound 334], the results for the pest or weed control at 2.5 µg/mL in assay [1] (setting [4]) and in assay [2] (concentration 2.5 mg/L) were at least 95% and at least 90%, respectively. The pest or weed control at 5 µg/mL in assay [3] (setting [5]) is at least 90%.

Consider `Cc1cc(/C(OCOC(=O)C2CC2)=C(\C#N)c2ccc(C(C)(C)C)cc2)n(C)n1` [Compound 9], for which the pest or weed control at 2.5 µg/mL is at least 95% in assay [1] (setting [4]) and at least 90% in assay [2] (concentration 2.5 mg/L). Further, the pest or weed control at 5 µg/mL in assay [3] (setting [5]) was at least 90%.

As to `CCn1nc(C)c(Cl)c1/C(OC(C)OC(=O)CC(C)C)=C(\C#N)c1ccc(C(C)(C)C)cc1` (stereo not drawn) [Compound 332], the pest or weed control at 2.5 µg/mL in assay [1] (setting [4]) is at least 95%; in assay [2] (concentration 2.5 mg/L) it was at least 90%. Moreover, in assay [3] (setting [5]), the pest or weed control at 5 µg/mL is at least 90%.

For `CCn1nc(C)c(Cl)c1/C(OC(C)OC(=O)Cc1ccccc1)=C(\C#N)c1ccc(C(C)(C)C)cc1` (stereo not drawn) [Compound 340], the values for the pest or weed control at 2.5 µg/mL in assay [1] (setting [6]) and in assay [2] (concentration 2.5 mg/L) were at least 95% and at least 90%, respectively. The pest or weed control at 5 µg/mL in assay [3] (setting [5]) is at least 90%.

On to `CCn1nc(C)cc1/C(OCOC(=O)Cc1ccccc1)=C(\C#N)c1ccc(C(C)(C)C)cc1` [Compound 240], for which the results for the pest or weed control at 2.5 µg/mL in assay [1] (setting [6]) and in assay [2] (concentration 2.5 mg/L) were at least 95% and at least 90%, respectively. For the same molecule, the pest or weed control at 5 µg/mL in assay [3] (setting [5]) is at least 90%.

Regarding `Cc1cc(/C(OC(C)OC(=O)Cc2ccccc2)=C(\C#N)c2ccc(C(C)(C)C)cc2)n(C)n1` (stereo not drawn) [Compound 40], the results for the pest or weed control at 2.5 µg/mL in assay [1] (setting [6]) and in assay [2] (concentration 2.5 mg/L) were at least 95% and at least 90%, respectively. Besides, the pest or weed control at 5 µg/mL in assay [3] (setting [5]) is at least 90%.

Take `CCn1nc(C)c(Cl)c1/C(OC(C)OC(=O)CF)=C(\C#N)c1ccc(C(C)(C)C)cc1` (stereo not drawn) [Compound 337]: the pest or weed control at 2.5 µg/mL in assay [1] (setting [7]) is at least 95%; in assay [2], at least 90%. Further, the pest or weed control at 5 µg/mL in assay [3] was at least 90%.

For the molecule `CCn1nc(C)c(Cl)c1/C(OCOC(=O)CF)=C(\C#N)c1ccc(C(C)(C)C)cc1` [Compound 312], the values for the pest or weed control at 2.5 µg/mL in assay [1] (setting [7]) and in assay [2] were at least 95% and at least 90%, respectively. Besides, the pest or weed control at 5 µg/mL in assay [3] was at least 90%.

Regarding `CCn1nc(C)cc1/C(OCOC(=O)CC(C)C)=C(\C#N)c1ccc(C(C)(C)C)cc1` [Compound 232], the pest or weed control at 2.5 µg/mL in assay [1] (setting [4]) is at least 95%; in assay [2] (concentration 2.5 mg/L), at least 90%. The pest or weed control at 5 µg/mL in assay [3] (setting [5]) is at least 90%.

`CCSC(=O)OCO/C(=C(/C#N)c1ccc(C(C)(C)C)cc1)c1cc(C)nn1CC` [Compound 576]: the figures for the pest or weed control at 2.5 µg/mL in assay [1] (setting [4]) and in assay [2] (concentration 2.5 mg/L) were at least 95% and at least 90%, respectively. Besides, the pest or weed control at 5 µg/mL in assay [3] (setting [5]) was at least 90%.

With `CCn1nc(C)cc1/C(OCOC(=O)OCCCl)=C(\C#N)c1ccc(C(C)(C)C)cc1` [Compound 558], the pest or weed control at 2.5 µg/mL in assay [1] (setting [4]) is at least 95%; in assay [2] (concentration 2.5 mg/L), at least 90%. In addition, the pest or weed control at 5 µg/mL in assay [3] (setting [5]) was at least 90%.

`Cc1nn(C)c(/C(OC(C)OC(=O)C2CC2)=C(\C#N)c2ccc(C(C)(C)C)cc2)c1Cl` (stereo not drawn) [Compound 109]: the pest or weed control at 2.5 µg/mL in assay [1] (setting [4]) is at least 95%; in assay [2] (concentration 2.5 mg/L), at least 90%. Besides, the pest or weed control at 5 µg/mL in assay [3] (setting [5]) is at least 90%.

With `Cc1cc(/C(OCOC(=O)c2ccccc2)=C(\C#N)c2ccc(C(C)(C)C)cc2)n(C)n1` [Compound 14], the pest or weed control at 2.5 µg/mL is at least 95% in assay [1] (setting [4]) and at least 90% in assay [2] (concentration 2.5 mg/L). Further, the pest or weed control at 5 µg/mL in assay [3] (setting [5]) is at least 90%.

With `CCn1nc(C)c(C)c1/C(OC(C)OC(=O)Cc1ccccc1)=C(\C#N)c1ccc(C(C)(C)C)cc1` (stereo not drawn) [Compound 415], the figures for the pest or weed control at 2.5 µg/mL in assay [1] (setting [6]) and in assay [2] (concentration 2.5 mg/L) were at least 95% and at least 90%, respectively. Further, the pest or weed control at 5 µg/mL in assay [3] (setting [5]) was at least 90%.

The values are drawn from patent US11104648B2, “Pyrazole derivative” (Zhejiang Research Institute of Chemical Industry Co., Ltd., priority 2018, dated 2021).
